Measured values taken from publication PMC4821188 (Biological chemistry, 2010).
Where “and” joins values, the source holds several entries; their conditions need not be identical. Equal entries are not always repeated. *: point of attachment. EDDnp = O=[N+]([O-])c1ccc(NCCN*)c([N+](=O)[O-])c1; AMC = Cc1cc(=O)oc2cc(N*)ccc12

Legend:
Recombinant human furin [1] = target: T1, Recombinant human furin (Homo sapiens, UniProt P09958); type: biochemical; conditions: 4 μM substrate; 10 mM MES, 1 mM CaCl2, 0.01% Triton X-100, pH 7.0, 36.5 °C
T1 sequence (P09958 108-715 limits assumed): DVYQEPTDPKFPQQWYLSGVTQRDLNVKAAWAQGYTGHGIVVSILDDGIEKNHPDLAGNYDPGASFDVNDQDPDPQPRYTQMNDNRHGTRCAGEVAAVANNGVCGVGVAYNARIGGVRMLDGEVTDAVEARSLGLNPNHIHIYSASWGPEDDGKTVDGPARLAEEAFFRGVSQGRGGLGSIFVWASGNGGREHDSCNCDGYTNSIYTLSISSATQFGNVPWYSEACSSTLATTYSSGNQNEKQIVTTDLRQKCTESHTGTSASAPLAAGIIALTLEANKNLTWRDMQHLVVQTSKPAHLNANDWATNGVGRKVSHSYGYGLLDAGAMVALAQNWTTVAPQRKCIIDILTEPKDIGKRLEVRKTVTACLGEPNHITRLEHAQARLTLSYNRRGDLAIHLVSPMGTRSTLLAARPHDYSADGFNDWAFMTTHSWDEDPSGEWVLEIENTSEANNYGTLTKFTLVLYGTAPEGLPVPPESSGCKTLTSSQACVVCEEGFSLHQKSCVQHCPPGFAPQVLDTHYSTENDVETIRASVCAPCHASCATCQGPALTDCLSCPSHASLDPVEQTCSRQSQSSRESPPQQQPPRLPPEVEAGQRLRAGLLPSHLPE

Recombinant human furin [2] = target: T1, Recombinant human furin; type: biochemical; conditions: for Km / kcat / kcat/Km / hydrolysis by furin (result in words, cell spans kcat, Km, kcat/Km and R): pH 7
Kex2 = target: T2, Kex2 (Saccharomyces cerevisiae, UniProt P13134); type: biochemical, S. cerevisiae; conditions: in the absence of Mg^2+
T2 sequence (P13134 114-613 limits assumed): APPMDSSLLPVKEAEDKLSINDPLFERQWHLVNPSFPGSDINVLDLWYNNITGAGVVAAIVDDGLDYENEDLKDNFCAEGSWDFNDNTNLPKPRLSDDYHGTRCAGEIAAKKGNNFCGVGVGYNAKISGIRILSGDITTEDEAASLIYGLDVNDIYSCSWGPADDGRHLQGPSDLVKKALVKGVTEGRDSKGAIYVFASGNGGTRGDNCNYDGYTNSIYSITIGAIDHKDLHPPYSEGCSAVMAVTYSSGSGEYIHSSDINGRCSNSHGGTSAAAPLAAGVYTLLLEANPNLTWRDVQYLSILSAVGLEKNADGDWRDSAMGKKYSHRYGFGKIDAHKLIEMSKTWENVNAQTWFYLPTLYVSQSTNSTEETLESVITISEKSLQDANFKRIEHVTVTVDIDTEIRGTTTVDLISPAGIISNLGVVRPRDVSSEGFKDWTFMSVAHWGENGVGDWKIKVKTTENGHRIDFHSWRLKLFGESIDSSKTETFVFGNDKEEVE

Recombinant human furin [3] = target: T1, Recombinant human furin; type: biochemical

| Compound | effect on the rate of hydrolysis of Abz-[…]-Q-EDDnp by furin (Recombinant human furin [1]) | R: relative kcat/Km values in presence vs. absence of MgCl2 (Recombinant human furin [2]) | Km (Recombinant human furin [2]) | kcat (Recombinant human furin [2]) | kcat/Km (Recombinant human furin [2]) | kcat/Km for hydrolysis by kex2 (Kex2) [M⁻¹ s⁻¹] | pK1 of pH-profile of furin hydrolysis (Recombinant human furin [3]) | hydrolysis by furin (result in words, cell spans kcat, Km, kcat/Km and R) (Recombinant human furin [2]) |
| --- | --- | --- | --- | --- | --- | --- | --- | --- |
| [Cl-].[K+] [KCl] | increased the rate of hydrolysis |  |  |  |  |  |  |  |
| [Cl-].[Cl-].[Mg+2] [Mg^2+, magnesium chloride] | significant increase |  |  |  |  |  |  |  |
| [Cl-].[Na+] [NaCl] | no effect |  |  |  |  |  |  |  |
| Abz-GIRRKRSVSHQ-EDDnp [compound 19] |  | 0.9 | 0.42 µM and 0.39 µM | 29.6 (30.3) s^−1 | 70547 (77100) (mM.s)^−1 |  |  |  |
| Abz-LDKR↓EAE-Q-EDDnp |  |  |  |  |  | 353000 |  |  |
| Abz-RERRRKKR↓GLFG-Q-EDDnp [peptide 48] |  | 79 |  | 12.3(2.6) s^−1 | 123000 (1555) (mM.s)^−1 |  |  |  |
| Abz-RKRSRRQVNTQ-EDDnp [peptide 1] |  | 44 |  | 11.3 (8.4) s^−1 | 56300 (1291) (mM.s)^−1 |  | 5.46 and 5.67 |  |
| Abz-RRRKKR↓GLFG-Q-EDDnp [compound 31] |  |  | 15.5 µM | 5.0 s⁻¹ | 322 mM/s |  |  |  |
| Abz-SGRSRRAIDLQ-EDDnp [peptide 10] |  | 3.0 |  | 6.2 (4.3) s^−1 | 15923 (5328) (mM.s)^−1 |  |  |  |
| Abz-SRRHKR↓FAGV-Q-EDDnp (Abz-SRRHKRFAGVQ-EDDnp) [peptide 32] |  | 60 |  | 2.4 (0.21) s^−1 | 33857 (559) (mM.s)^−1 |  | 5.27 and 5.42 |  |
| Abz-YKR↓EAD-Q-EDDnp |  |  |  |  |  | 7.939e+06 |  |  |
| Ac-RVRR-{AMC} [compound 38, reference compound] |  | 0.1 |  | 0.59 (0.98) s^−1 | 120 (1139) (mM.s)^−1 |  |  |  |
| GQRKKR↓ALDT [compound 40] |  | 0.06 |  | 3.6 (3.9) s^−1 | 829 (14130) (mM.s)^−1 |  |  |  |
| HHRQRR↓SVSI [compound 37] |  | 0.1 |  | 28.9 (39.5) s^−1 | 9031 (116088) (mM.s)^−1 |  |  |  |
| HKREKR↓QAKH [compound 39] |  | 0.1 |  | 6.3 (6.9) s^−1 | 2354 (17734) (mM.s)^−1 |  |  |  |
| HNRTKR↓STDG [compound 23] |  | 28 | 0.95 µM and 0.87 µM | 7.8 (0.26) s^−1 | 8210 (289) (mM.s)^−1 |  |  |  |
| HRRDKR↓SVAL [compound 17] |  | 0.6 |  | 12.7 (9.5) s^−1 | 23091 (36615) (mM.s)^−1 |  |  |  |
| HRREKR↓SVAL [compound 16] |  | 0.7 | 0.2 µM and 0.22 µM | 7.6 (12.2) s^−1 | 38300 (55636) (mM.s)^−1 |  |  |  |
| HRRQKR↓SVAL [compound 14] |  | 1.2 | 0.37 µM and 0.28 µM | 14.9 (9.2) s^−1 | 40270 (32431) (mM.s)^−1 |  |  |  |
| KIRRRR↓DVVD [compound 26] |  | 8.9 | 0.05 µM and 0.1 µM | 3.1 (0.60) s^−1 | 53448 (6000) (mM.s)^−1 |  |  |  |
| KKRKRR↓FLGF [compound 33] |  | 4.2 |  | 1.1 (0.64) s^−1 | 2173 (512) (mM.s)^−1 |  |  |  |
| KRRQRR↓RPPQ [compound 21] |  |  |  |  |  |  |  | Slow Hydrolysis |
| LKRRRR↓DTQQ [compound 30] |  | 0.6 |  | 6.7 (0.61) s^−1 | 1303 (2184) (mM.s)^−1 |  |  |  |
| LRRRRR↓DAGN [compound 25] |  | 9.9 | 3.6 µM and 3.3 µM | 12.3 (1.1) s^−1 | 3455 (348) (mM.s)^−1 |  |  |  |

| Compound | effect on the rate of hydrolysis of Abz-[…]-Q-EDDnp by furin (Recombinant human furin [1]) | R: relative kcat/Km values in presence vs. absence of MgCl2 (Recombinant human furin [2]) | Km (Recombinant human furin [2]) | kcat (Recombinant human furin [2]) | kcat/Km (Recombinant human furin [2]) | kcat/Km for hydrolysis by kex2 (Kex2) [M⁻¹ s⁻¹] | pK1 of pH-profile of furin hydrolysis (Recombinant human furin [3]) | hydrolysis by furin (result in words, cell spans kcat, Km, kcat/Km and R) (Recombinant human furin [2]) |
| --- | --- | --- | --- | --- | --- | --- | --- | --- |
| LTRQRR↓SLLP [compound 8] |  | 1.3 | 0.9 µM and 0.64 µM | 3.3 (1.8) s^−1 | 3510 (2708) (mM.s)^−1 |  |  |  |
| MMRHRR↓ELQR [compound 7] |  | 1.7 |  | 10.3 (16.2) s^−1 | 23409 (13508) (mM.s)^−1 |  |  |  |
| NLRRRR↓DLVD [compound 28] |  | 7.2 |  | 3.5 (2.0) s^−1 | 10606 (1470) (mM.s)^−1 |  |  |  |
| NTRSRR↓SVPV [compound 29] |  |  |  |  |  |  |  | Slow Hydrolysis |
| QIRAKR↓ELSK [compound 2] |  | 6.9 |  | 6.7 (9.7) s^−1 | 5583 (808) (mM.s)^−1 |  |  |  |
| QSRRRR↓QTPP [compound 41] |  | 0.05 |  | 3.4 (6.3) s^−1 | 1547 (31067) (mM.s)^−1 |  |  |  |
| RKRRKR↓ELET [compound 27] |  | 8.5 |  | 4.3 (0.23) s^−1 | 1400 (164) (mM.s)^−1 |  |  |  |
| RNRQKR↓FVLS [compound 42] |  |  | 0.59 µM | 0.20 s⁻¹ | 337 mM/s |  |  |  |
| RRRAKR↓SPKH [compound 35] |  | 6.2 |  | 5.3 (8.7) s^−1 | 4383 (710) (mM.s)^−1 |  |  |  |
| RRRDKR↓SVAL [compound 15] |  | 0.8 | 0.41 µM and 0.39 µM | 12.2 (14.6) s^−1 | 29658 (37505) (mM.s)^−1 |  |  |  |
| RRRKKR↓GLSG [compound 45] |  | 38 |  | 6.7 (2.4) s^−1 | 30500 (797) (mM.s)^−1 |  |  |  |
| RRRKKR↓SLFG [compound 46] |  | 54 |  | 7.6 (1.0) s^−1 | 33043 (606) (mM.s)^−1 |  |  |  |
| RRRKKR↓SLSG [compound 47] |  | 14 |  | 4.5(0.92) s^−1 | 18833 (1333) (mM.s)^−1 |  |  |  |
| SIRHKR↓EPSV [compound 20] |  | 0.9 | 2.4 µM and 2.8 µM | 1.6 (2.1) s^−1 | 646 (729) (mM.s)^−1 |  |  |  |
| SKRSRR↓SVSV [compound 13] |  | 1.5 | 0.49 µM and 0.41 µM | 18.3 (10.5) s^−1 | 37347(25362) (mM.s)^−1 |  |  |  |
| SRRKRR↓DVTP [compound 6] |  | 3.2 |  | 9.9 (9.2) s^−1 | 66000 (20467) (mM.s)^−1 |  |  |  |
| SRRKRR↓SAST [compound 22] |  | 38 |  | 11.1 (10.0) s^−1 | 76232 (1992) (mM.s)^−1 |  |  |  |
| SRRSRR↓SLTV [compound 12] |  |  |  | 6.2 (4.3) s^−1 | 15923 (5328) (mM.s)^−1 |  |  |  |
| SSRHRR↓ALDT [compound 36] |  | 0.3 |  | 7.1 (5.6) s^−1 | 1707 (6488) (mM.s)^−1 |  |  |  |
| THRTRR↓STSD [compound 24] |  | 11 | 1.9 µM and 1.2 µM | 8.1 (0.44) s^−1 | 4128 (370) (mM.s)^−1 |  |  |  |
| TRRFRR↓SITE [compound 34] |  | 1.3 | 0.53 µM and 0.58 µM | 19.8 (16.4) s^−1 | 37358 (28362) (mM.s)^−1 |  |  |  |
| VQREKR↓AVGI [compound 18] |  | 3.2 | 2.1 µM and 2.8 µM | 2.7 (1.2) s^−1 | 1290 (407) (mM.s)^−1 |  |  |  |
| VRRRRR↓YALS [compound 43] |  |  | 3.14 µM | 0.60 s⁻¹ | 193 mM/s |  |  |  |
| VVRVRR↓ELLP [compound 5] |  | 3.8 |  | 16.6 (12.2) s^−1 | 13071 (3466) (mM.s)^−1 |  |  |  |
